One assay has as its target Carbonic anhydrase 2 (Homo sapiens, UniProt P00918). As to the kind of experiment: Inhibition of human carbonic anhydrase 2 assessed as inhibitory constant incubated for 15 mins by phenol red dye based stopped flow assay.
Assay [1] concerns the target T1, Carbonic anhydrase 12 (Homo sapiens, UniProt O43570). The experiment in a line: Inhibition of human carbonic anhydrase 12 assessed as inhibitory constant incubated for 15 mins by phenol red dye based stopped flow assay.
A further assay concerns the target Carbonic anhydrase 1 (Homo sapiens, UniProt P00915). The experiment in a line: Inhibition of human carbonic anhydrase 1 assessed as inhibitory constant incubated for 15 mins by phenol red dye based stopped flow assay.
For assay [2], the target named is T2, Carbonic anhydrase 9 (Homo sapiens, UniProt Q16790). As to the kind of experiment: Inhibition of human carbonic anhydrase 9 assessed as inhibitory constant incubated for 15 mins by phenol red dye based stopped flow assay.
Assay [3] concerns the target T1, Carbonic anhydrase 12. The note with it: at 0.001 µM.
Assay [4] addresses T2, Carbonic anhydrase 9. Conditions: at 1 µM.
Description: Inhibition of human carbonic anhydrase 9 assessed as reduction in CO2 hydration at 10^-6 M incubated for 15 mins by phenol red dye based stopped flow assay relative to control (Rvb = 0 %)
In assay [5] the target is T1, Carbonic anhydrase 12. The note with it: at 1 µM.
Description: Inhibition of human carbonic anhydrase 12 assessed as reduction in CO2 hydration at 10^-6 M incubated for 15 mins by phenol red dye based stopped flow assay relative to control (Rvb = 0 %)
The target in assay [6] is T1, Carbonic anhydrase 12. Conditions: at 0.1 µM.
Description: Inhibition of human carbonic anhydrase 12 assessed as reduction in CO2 hydration at 10^-7 M incubated for 15 mins by phenol red dye based stopped flow assay relative to control (Rvb = 0 %)
Assay [7] has as its target T1, Carbonic anhydrase 12. Conditions: at 0.01 µM.
Assay [8] addresses T2, Carbonic anhydrase 9. Conditions: at 0.1 µM.
Description: Inhibition of human carbonic anhydrase 9 assessed as reduction in CO2 hydration at 10^-7 M incubated for 15 mins by phenol red dye based stopped flow assay relative to control (Rvb = 0 %)
Assay [9] has as its target T2, Carbonic anhydrase 9. The note with it: at 0.001 µM.
Description: Inhibition of human carbonic anhydrase 9 assessed as reduction in CO2 hydration at 10^-9 M incubated for 15 mins by phenol red dye based stopped flow assay relative to control (Rvb = 0 %)
Assay [10] concerns the target T2, Carbonic anhydrase 9. Conditions: at 0.01 µM.
Description: Inhibition of human carbonic anhydrase 9 assessed as reduction in CO2 hydration at 10^-8 M incubated for 15 mins by phenol red dye based stopped flow assay relative to control (Rvb = 0 %)

Sequence of Carbonic anhydrase 1 (P00915 whole entry): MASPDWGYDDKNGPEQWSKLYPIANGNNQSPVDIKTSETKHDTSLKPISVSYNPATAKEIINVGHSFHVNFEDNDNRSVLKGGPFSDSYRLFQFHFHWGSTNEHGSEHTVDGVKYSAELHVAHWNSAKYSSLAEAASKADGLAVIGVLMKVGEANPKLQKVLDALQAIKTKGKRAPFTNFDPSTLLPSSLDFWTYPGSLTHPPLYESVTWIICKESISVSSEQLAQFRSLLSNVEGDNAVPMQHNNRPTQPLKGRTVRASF
T1 sequence (O43570 whole entry): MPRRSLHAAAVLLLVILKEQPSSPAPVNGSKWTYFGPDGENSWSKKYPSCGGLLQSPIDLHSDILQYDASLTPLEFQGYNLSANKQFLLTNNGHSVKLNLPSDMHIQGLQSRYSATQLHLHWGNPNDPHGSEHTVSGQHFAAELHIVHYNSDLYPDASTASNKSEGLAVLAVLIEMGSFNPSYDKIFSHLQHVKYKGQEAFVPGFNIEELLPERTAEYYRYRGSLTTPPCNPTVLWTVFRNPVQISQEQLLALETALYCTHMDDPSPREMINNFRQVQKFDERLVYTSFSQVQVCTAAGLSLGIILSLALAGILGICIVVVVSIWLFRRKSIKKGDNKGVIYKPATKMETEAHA

On to `CC(=O)N1N=C(c2ccc(OS(N)(=O)=O)cc2)CC1c1c(Cl)cccc1Cl` (configuration not stated), for which the Ki was found to be 13.2 nM at Carbonic anhydrase 2, 43.7 nM at Carbonic anhydrase 12 [1], 4080 nM on Carbonic anhydrase 1 and 33.4 nM at Carbonic anhydrase 9 [2].
Regarding `CC(=O)N1N=C(c2ccccc2)CC1c1cccc(OS(N)(=O)=O)c1` (configuration not stated), the Ki was found to be 16.5 nM on Carbonic anhydrase 2, 22.9 nM on Carbonic anhydrase 12 [1], 755 nM at Carbonic anhydrase 1 and 13.1 nM at Carbonic anhydrase 9 [2].
For `COc1ccc(C2CC(c3cccc(OS(N)(=O)=O)c3)=NN2C(C)=O)cc1` (configuration not stated) the same measures were 52.4 nM, 48.6 nM, 172 nM and 8.7 nM.
In the case of `CC(=O)N1N=C(c2ccc(OS(N)(=O)=O)cc2)CC1c1ccc(C(F)(F)F)cc1` (configuration not stated), the Ki on Carbonic anhydrase 2 came out at 0.83 nM; on Carbonic anhydrase 1 it was 2740 nM; at Carbonic anhydrase 9 [2], 29.3 nM.
With `CC(=O)N1N=C(c2ccc(OS(N)(=O)=O)cc2)CC1c1ccc(F)cc1` (configuration not stated), the Ki at Carbonic anhydrase 2 amounted to 1.5 nM; on Carbonic anhydrase 12 [1], 11.8 nM; on Carbonic anhydrase 1 it was 666 nM; on Carbonic anhydrase 9 [2], 5.9 nM.
For `CC(=O)N1N=C(c2ccc(Cl)c(Cl)c2)CC1c1ccc(OS(N)(=O)=O)cc1` (configuration not stated) the same measures were 27.6 nM, 12.9 nM, 2900 nM and 7.7 nM.
Turning to `CC(=O)N1N=C(c2ccc(C)cc2)CC1c1ccc(OS(N)(=O)=O)cc1` (configuration not stated), the Ki at Carbonic anhydrase 2 was determined as 9.9 nM; at Carbonic anhydrase 12 [1], 7.7 nM; at Carbonic anhydrase 1, 2340 nM; on Carbonic anhydrase 9 [2] it was 22.4 nM.
With `CC(=O)N1N=C(c2ccc(OS(N)(=O)=O)cc2)CC1c1cc(Cl)ccc1Cl` (configuration not stated), the values for the Ki on Carbonic anhydrase 2, at Carbonic anhydrase 1 and at Carbonic anhydrase 9 [2] were 12.4 nM, 4750 nM and 25.5 nM, respectively.
Consider `CC(=O)N1N=C(c2ccc(Cl)cc2)CC1c1cccc(OS(N)(=O)=O)c1` (configuration not stated), for which the Ki is 32.7 nM on Carbonic anhydrase 2, 22.3 nM at Carbonic anhydrase 12 [1], 2140 nM at Carbonic anhydrase 1 and 0.81 nM on Carbonic anhydrase 9 [2].
With `CC(=O)N1N=C(c2ccc(Cl)cc2Cl)CC1c1ccc(OS(N)(=O)=O)cc1` (configuration not stated), the Ki on Carbonic anhydrase 2 is 5.3 nM; on Carbonic anhydrase 12 [1], 42 nM; on Carbonic anhydrase 1 it was 3520 nM; on Carbonic anhydrase 9 [2], 49.9 nM.
For `CC(=O)N1N=C(c2ccc(Cl)c(Cl)c2)CC1c1cccc(OS(N)(=O)=O)c1` (configuration not stated) the same measures were 54.8 nM, 85.2 nM, 8170 nM and 15.5 nM.
The corresponding values for `CC(=O)N1N=C(c2ccc(Cl)cc2)CC1c1ccc(OS(N)(=O)=O)cc1` (configuration not stated) are 19.5 nM, 29.5 nM, 970 nM and 8.3 nM.
The corresponding values for `COc1ccc(C2CC(c3ccc(OS(N)(=O)=O)cc3)=NN2C(C)=O)cc1` (configuration not stated) are 5.3 nM, 42.6 nM, 1610 nM and 25 nM.
Regarding `CC(=O)N1N=C(c2ccc(OS(N)(=O)=O)cc2)CC1c1ccc(Cl)cc1` (configuration not stated), the Ki at Carbonic anhydrase 2 was found to be 6 nM; on Carbonic anhydrase 12 [1], 27.3 nM; at Carbonic anhydrase 1, 1140 nM; on Carbonic anhydrase 9 [2], 6.9 nM.
For `CC(=O)N1N=C(c2ccc(OS(N)(=O)=O)cc2)CC1c1ccc(Cl)cc1Cl` (configuration not stated) the same measures were 9.3 nM, 26.2 nM, 3750 nM and 11.2 nM.
As for `CC(=O)N1N=C(c2ccc(OS(N)(=O)=O)cc2)CC1c1ccccc1` (configuration not stated), the Ki at Carbonic anhydrase 2 came to 8.9 nM; on Carbonic anhydrase 1, 1310 nM; at Carbonic anhydrase 9 [2], 34.1 nM.
For `CC(=O)N1N=C(c2cccc(OS(N)(=O)=O)c2)CC1c1ccc(C)cc1` (configuration not stated), the Ki at Carbonic anhydrase 2 was determined as 71.2 nM; on Carbonic anhydrase 12 [1] it was 55.9 nM; at Carbonic anhydrase 1, 558 nM; on Carbonic anhydrase 9 [2], 29.4 nM.
Turning to `CC(=O)N1N=C(c2ccc(F)cc2)CC1c1cccc(OS(N)(=O)=O)c1` (configuration not stated), the Ki at Carbonic anhydrase 2 was 6.5 nM; on Carbonic anhydrase 1 it was 5230 nM; at Carbonic anhydrase 9 [2], 15.8 nM.
Take `CC(=O)N1N=C(c2ccc(OS(N)(=O)=O)cc2)CC1c1cccc2ccccc12` (configuration not stated): the Ki was found to be 27.5 nM at Carbonic anhydrase 2, 56.4 nM at Carbonic anhydrase 12 [1], 3300 nM on Carbonic anhydrase 1 and 49 nM at Carbonic anhydrase 9 [2].
With `CC(=O)N1N=C(c2cccc(OS(N)(=O)=O)c2)CC1c1ccc(Cl)cc1Cl` (configuration not stated), the Ki at Carbonic anhydrase 2 stood at 195 nM; on Carbonic anhydrase 12 [1] it was 33.8 nM; at Carbonic anhydrase 1 it was 1410 nM; on Carbonic anhydrase 9 [2] it was 13.8 nM.
The corresponding values for `CC(=O)N1N=C(c2cccc(OS(N)(=O)=O)c2)CC1c1ccc(F)cc1` (configuration not stated) are 38 nM, 13.5 nM, 67.4 nM and 8.4 nM.
Regarding `CC(=O)N1N=C(c2ccc(OS(N)(=O)=O)cc2)CC1c1ccc(C)cc1` (configuration not stated), the Ki on Carbonic anhydrase 2 amounted to 6.5 nM; at Carbonic anhydrase 12 [1], 22.3 nM; at Carbonic anhydrase 1, 817 nM; at Carbonic anhydrase 9 [2], 7.1 nM.
For `CC(=O)N1N=C(c2cccc(OS(N)(=O)=O)c2)CC1c1ccccc1Cl` (configuration not stated) the same measures were 90.1 nM, 74.4 nM, 940 nM and 43.6 nM.
On to `CC(=O)N1N=C(c2ccc(OS(N)(=O)=O)cc2)CC1c1ccc([N+](=O)[O-])cc1` (configuration not stated), for which the Ki was 1.2 nM at Carbonic anhydrase 2, 3210 nM at Carbonic anhydrase 1 and 74.3 nM on Carbonic anhydrase 9 [2].
On to `CC(=O)N1N=C(c2cccc(OS(N)(=O)=O)c2)CC1c1cc(Cl)ccc1Cl` (configuration not stated), for which the Ki came out at 92.6 nM on Carbonic anhydrase 2, 34.2 nM at Carbonic anhydrase 12 [1], 2040 nM on Carbonic anhydrase 1 and 58.9 nM on Carbonic anhydrase 9 [2].
On to `CC(=O)N1N=C(c2ccc([N+](=O)[O-])cc2)CC1c1cccc(OS(N)(=O)=O)c1` (configuration not stated), for which the Ki worked out at 22.9 nM on Carbonic anhydrase 2, 20.5 nM at Carbonic anhydrase 12 [1], 2550 nM at Carbonic anhydrase 1 and 9.4 nM at Carbonic anhydrase 9 [2].
For `CC(=O)N1N=C(c2ccc(C)cc2)CC1c1cccc(OS(N)(=O)=O)c1` (configuration not stated) the same measures were 25.4 nM, 49.8 nM, 1540 nM and 8.9 nM.
For `CC(=O)N1N=C(c2ccc(Cl)cc2Cl)CC1c1cccc(OS(N)(=O)=O)c1` (configuration not stated) the same measures were 12 nM, 30.8 nM, 6940 nM and 48.7 nM.
For the molecule `CC(=O)N1N=C(c2cccc(OS(N)(=O)=O)c2)CC1c1ccc(Cl)cc1` (configuration not stated), the Ki came to 14.7 nM at Carbonic anhydrase 2, 9.3 nM on Carbonic anhydrase 12 [1], 438 nM on Carbonic anhydrase 1 and 6.9 nM at Carbonic anhydrase 9 [2].
With `CC(=O)N1N=C(c2ccc(OS(N)(=O)=O)cc2)CC1c1ccccc1Cl` (configuration not stated), the Ki on Carbonic anhydrase 2 was found to be 9 nM; at Carbonic anhydrase 1, 8250 nM; at Carbonic anhydrase 9 [2], 25.9 nM.
As to `CC(=O)N1N=C(c2cccc(OS(N)(=O)=O)c2)CC1c1c(Cl)cccc1Cl` (configuration not stated), the Ki is 223 nM at Carbonic anhydrase 2, 61.3 nM at Carbonic anhydrase 12 [1], 1780 nM on Carbonic anhydrase 1 and 63.6 nM on Carbonic anhydrase 9 [2].
For `CC(=O)N1N=C(c2cccc(OS(N)(=O)=O)c2)CC1c1ccc(C(F)(F)F)cc1` (configuration not stated) the same measures were 22.2 nM, 8.9 nM, 952 nM and 3.7 nM.
For `CC(=O)N1N=C(c2cccc(OS(N)(=O)=O)c2)CC1c1ccccc1` (configuration not stated) the same measures were 39.4 nM, 55.1 nM, 188 nM and 29.9 nM.
For `CC(=O)N1N=C(c2cccc(OS(N)(=O)=O)c2)CC1c1ccc([N+](=O)[O-])cc1` (configuration not stated) the same measures were 134 nM, 20.8 nM, 1460 nM and 10.1 nM.
`CC(=O)N1N=C(c2cccc(OS(N)(=O)=O)c2)CC1c1cccc2ccccc12` (configuration not stated): the Ki on Carbonic anhydrase 2 stood at 216 nM; at Carbonic anhydrase 12 [1], 463 nM; at Carbonic anhydrase 1 it was 2240 nM; on Carbonic anhydrase 9 [2], 51.1 nM.
Take `CC(=O)N1N=C(c2ccccc2)CC1c1ccc(OS(N)(=O)=O)cc1` (configuration not stated): the inhibition was found to be 15% on Carbonic anhydrase 12 [3]; 81% at Carbonic anhydrase 9 [4]; 89% at Carbonic anhydrase 12 [5]; 77% on Carbonic anhydrase 12 [6]; 49% against Carbonic anhydrase 12 [7]; 69% at Carbonic anhydrase 9 [8]. Further, the inhibition against Carbonic anhydrase 9 [9] was 16%; at Carbonic anhydrase 9 [10], 42%. Besides, the Ki on Carbonic anhydrase 2 turned out to be 44.8 nM; at Carbonic anhydrase 12 [1], 10.6 nM; on Carbonic anhydrase 1 it was 645 nM; on Carbonic anhydrase 9 [2], 45.1 nM.
Turning to `CC(=O)N1N=C(c2ccc([N+](=O)[O-])cc2)CC1c1ccc(OS(N)(=O)=O)cc1` (configuration not stated), the Ki was found to be 9.5 nM at Carbonic anhydrase 2, 0.88 nM at Carbonic anhydrase 12 [1], 3820 nM on Carbonic anhydrase 1 and 15 nM on Carbonic anhydrase 9 [2].
For `COc1ccc(C2=NN(C(C)=O)C(c3ccc(OS(N)(=O)=O)cc3)C2)cc1` (configuration not stated) the same measures were 0.42 nM, 9.5 nM, 2980 nM and 22.8 nM.
For `CC(=O)N1N=C(c2ccc(OS(N)(=O)=O)cc2)CC1c1cccc(Cl)c1` (configuration not stated) the same measures were 0.87 nM, 9.8 nM, 2310 nM and 0.72 nM.
The corresponding values for `CC(=O)N1N=C(c2cccc(OS(N)(=O)=O)c2)CC1c1cccc(Cl)c1` (configuration not stated) are 56.9 nM, 44.6 nM, 805 nM and 7.3 nM.

Usually Ki stands for a dissociation constant, usually derived from enzyme kinetics or from competition with a known ligand. One may read the inhibition as the drop in the measured response relative to a control, in per cent. Read a high inhibition as strong suppression.

For the origin of these results see ChEMBL document CHEMBL4359908, “Structure-activity relationship with pyrazoline-based aromatic sulfamates as carbonic anhydrase isoforms I, II, IX and XII inhibitors: Synthesis and biological evaluation” (Eur J Med Chem, 2019).
